Data from article PMC10132233 (Journal of Enzyme Inhibition and Medicinal Chemistry, 2023).

Tests used:
HER2 = HER2 (Homo sapiens, UniProt P04626); test: HotSpot kinase assay over HER2 (Reaction Biology)
[1] = target: T1, cyclin-dependent kinase 2 (CDK2) (Homo sapiens, UniProt P24941); test: Small kinase panel, CDK2; assay type: biochemical; details: read-out: % kinase inhibition (relative to DMSO control) CDK2
T1 construct: purchased Reaction Biology Co. (Malvern, PA)
Experimental: (§1) Enzyme inhibitory assays were carried out as described in our previous reports in the literature. […] The HotSpot assay platform includes specific kinase/substrate pairs and required cofactors. The base reaction buffer consisted of 20 mM Hepes (pH 7.5), 10 mM MgCl2, 1 mM EGTA, 0.02% Brij35, 0.02 mg/mL BSA, 0.1 mM Na3VO4, 2 mM DTT, and 1% DMSO. The tested compounds were dissolved in 100% DMSO to a specific concentration, and serial dilution was conducted. The reaction mixture containing the tested compound and 33P-ATP was incubated at room temperature for 2 h, and radioactivity was detected using the filter-binding method.

[2] = target: T2, vascular endothelial growth factor receptor 2 (VEGFR2) (Homo sapiens, UniProt P35968); test: Small kinase panel, VEGFR2; assay type: biochemical; details: read-out: % kinase inhibition (relative to DMSO control) VEGFR2
T2 construct: purchased Reaction Biology Co. (Malvern, PA)
T2 sequence (P35968 20-1356): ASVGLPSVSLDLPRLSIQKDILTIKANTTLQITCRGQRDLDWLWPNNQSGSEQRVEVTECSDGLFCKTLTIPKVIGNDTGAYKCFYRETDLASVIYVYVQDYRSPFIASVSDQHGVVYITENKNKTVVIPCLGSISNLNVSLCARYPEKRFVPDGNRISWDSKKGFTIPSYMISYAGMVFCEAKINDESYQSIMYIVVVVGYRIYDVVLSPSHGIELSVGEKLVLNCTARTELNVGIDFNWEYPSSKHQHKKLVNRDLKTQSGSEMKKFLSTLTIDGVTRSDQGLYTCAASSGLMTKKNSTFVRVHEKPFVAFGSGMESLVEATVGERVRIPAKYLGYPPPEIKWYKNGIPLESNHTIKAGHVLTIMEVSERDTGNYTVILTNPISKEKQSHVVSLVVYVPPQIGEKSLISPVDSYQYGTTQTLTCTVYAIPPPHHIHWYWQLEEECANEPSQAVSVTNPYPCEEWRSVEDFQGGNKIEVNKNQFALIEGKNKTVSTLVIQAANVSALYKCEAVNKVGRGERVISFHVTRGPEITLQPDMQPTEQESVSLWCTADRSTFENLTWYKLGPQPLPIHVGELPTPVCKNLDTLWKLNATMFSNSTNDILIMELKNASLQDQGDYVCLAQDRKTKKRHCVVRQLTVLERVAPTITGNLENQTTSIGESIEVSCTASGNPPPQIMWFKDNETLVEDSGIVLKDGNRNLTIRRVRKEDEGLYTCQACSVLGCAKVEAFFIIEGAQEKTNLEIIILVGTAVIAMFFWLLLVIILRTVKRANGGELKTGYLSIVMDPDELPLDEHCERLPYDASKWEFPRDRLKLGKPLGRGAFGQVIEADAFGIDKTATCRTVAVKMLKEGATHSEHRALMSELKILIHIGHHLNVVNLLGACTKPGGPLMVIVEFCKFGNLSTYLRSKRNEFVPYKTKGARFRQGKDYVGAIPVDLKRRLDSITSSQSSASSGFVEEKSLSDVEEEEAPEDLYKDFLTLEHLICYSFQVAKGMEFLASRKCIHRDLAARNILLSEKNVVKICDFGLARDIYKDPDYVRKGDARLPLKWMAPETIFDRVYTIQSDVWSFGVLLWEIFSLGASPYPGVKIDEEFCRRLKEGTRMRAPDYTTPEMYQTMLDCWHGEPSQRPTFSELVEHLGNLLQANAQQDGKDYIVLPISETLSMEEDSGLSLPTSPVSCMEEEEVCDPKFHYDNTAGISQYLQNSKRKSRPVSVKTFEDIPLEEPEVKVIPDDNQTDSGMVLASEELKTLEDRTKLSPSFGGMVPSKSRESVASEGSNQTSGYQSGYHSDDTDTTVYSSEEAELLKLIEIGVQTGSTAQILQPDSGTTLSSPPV
Experimental: as §1

Chain of HER2 (P04626 23-1255): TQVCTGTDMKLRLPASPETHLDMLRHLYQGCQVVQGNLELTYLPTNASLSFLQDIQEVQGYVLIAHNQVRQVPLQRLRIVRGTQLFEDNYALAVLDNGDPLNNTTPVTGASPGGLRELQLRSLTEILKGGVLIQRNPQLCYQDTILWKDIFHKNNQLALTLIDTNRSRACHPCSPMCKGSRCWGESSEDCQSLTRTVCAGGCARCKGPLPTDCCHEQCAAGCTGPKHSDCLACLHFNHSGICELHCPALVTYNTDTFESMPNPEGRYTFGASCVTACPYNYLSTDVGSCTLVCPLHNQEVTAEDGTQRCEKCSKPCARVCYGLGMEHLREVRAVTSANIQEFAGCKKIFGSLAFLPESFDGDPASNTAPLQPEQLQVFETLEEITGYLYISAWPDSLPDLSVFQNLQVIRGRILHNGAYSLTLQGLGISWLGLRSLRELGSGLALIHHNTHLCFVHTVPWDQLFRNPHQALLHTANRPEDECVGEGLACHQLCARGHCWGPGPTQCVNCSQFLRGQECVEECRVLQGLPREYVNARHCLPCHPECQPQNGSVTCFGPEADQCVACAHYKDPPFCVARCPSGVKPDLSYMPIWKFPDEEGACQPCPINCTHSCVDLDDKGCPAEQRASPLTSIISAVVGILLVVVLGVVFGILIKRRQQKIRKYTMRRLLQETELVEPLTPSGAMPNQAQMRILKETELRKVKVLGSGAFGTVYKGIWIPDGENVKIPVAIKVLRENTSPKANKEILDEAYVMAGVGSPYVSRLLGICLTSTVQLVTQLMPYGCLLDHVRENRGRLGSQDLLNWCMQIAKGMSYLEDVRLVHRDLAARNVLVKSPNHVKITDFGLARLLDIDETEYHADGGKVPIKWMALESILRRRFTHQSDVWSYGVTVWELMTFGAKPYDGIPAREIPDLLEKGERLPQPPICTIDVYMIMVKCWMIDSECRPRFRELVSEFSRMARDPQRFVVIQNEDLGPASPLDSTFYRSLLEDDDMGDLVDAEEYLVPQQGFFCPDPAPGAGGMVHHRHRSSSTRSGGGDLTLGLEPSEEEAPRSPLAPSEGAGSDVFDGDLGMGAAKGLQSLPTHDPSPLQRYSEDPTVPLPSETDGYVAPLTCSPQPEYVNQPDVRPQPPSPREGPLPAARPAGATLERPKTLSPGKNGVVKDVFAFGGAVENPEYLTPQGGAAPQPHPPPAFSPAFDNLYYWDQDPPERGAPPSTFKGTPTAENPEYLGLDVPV

COc1cc2ncnc(Nc3ccc(Oc4cccc(C(F)(F)F)c4)c(Cl)c3)c2cc1OCCCCn1ccnc1[N+](=O)[O-] [Compound 9f, N-(3-Chloro-4-(3-(trifluoromethyl)phenoxy)phenyl)-7-methoxy-6-(4-(2-nitro-1H-imidazol-1-yl)butoxy)quinazolin-4-amine] gave an IC50 (HER2) of 0.234 µM, an inhibition at 10 µM (HER2; read-out: % kinase inhibition HER2) of 98% and an inhibition at 10 µM [1] of 0.8%. The inhibition at 10 µM [2] was -4.46%.
